The results in this text go back to US4257941A, “Polycyclic nitrogen-containing compounds” (BASF Aktiengesellschaft, priority 1976, dated 1981).

Holding throughout (format): in vivo
The subject of one experiment is spring barley. The experiment is described as follows: Stem length, lateral shoots and yield in spring barley (Example 12). The following applies: for Ear weight relative / No. of lateral shoots relative / Stem length relative: control 100. The procedure:
To examine the effect of the various substances on spring barley up to the maturity stage of the plants, an experiment was carried out in large pots. The plants were grown in quartz sand (fertilized with 2 g N as ammonium nitrate in 3 doses, 1 g P2 O5 as secondary sodium phosphate, 1.5 g K2 O as potassium sulfate, 0.5 g MgO as magnesium sulfate, 10 ml of a solution of trace elements, and 10 mg of iron as an iron complex). […] The treated plants were up to 10% shorter than the control, and yields were also slightly up.

The subject of experiment [1] is sunflowers. Briefly: Action on sunflowers, hydroponic (Example 17c). Particulars: for Root dry substance rel. / Root length rel. / Shoot dry substance rel. / Shoot length rel.: control 100. The procedure: Young soybean plants grown in quartz sand were transferred to hydroponic treatment in 4 liter vessels and provided with a sufficient supply of nutrient solution and trace elements. The active ingredients were added (0.25 mg/vessel=0.06 ppm; 1.0 mg/vessel=0.25 ppm; 2.5 mg/vessel=0.63 ppm) at a plant height of approx. 22 cm. The plants were in continuous contact with the active ingredients. […] The roots were also shorter, but the plants had more and stronger shoots.
The action on soybeans, field beans and sunflowers was examined under the same conditions as in Example 16. The shoots and roots of all 3 crop plants were considerably shortened. Whereas in the shoots the dry substance was reduced commensurately with the shortening, the dry substance in the roots rose (particularly in soybeans) as the concentration increased.

For a further experiment, the system named is cotton. Briefly: Induction of flowering and growth height of cotton, hydroponic (Example 18). The following applies: for Shoot length: 4 weeks; for No. of squares per vessel (3 plants): control 0, average of 3 vessels; for Shoot length rel.: control 100. As to the method: Cotton plants were subjected to hydroponic treatment under the same conditions as in Example 16. The active ingredients were added (1.25 mg/vessel=0.3 ppm and 5 mg/vessel=1.25 ppm) at a height of the plant of 15 to 18 cm. […] The results below are averages from 3 vessels, each of 3 plants.

In a further experiment the test system is rice. The experiment is described as follows: Action on rice (Example 23). Particulars: leaf; for Plant height: 66 days; for Plant height relative: control 100. The procedure: At a growth height of 11 to 13 cm the active ingredients were sprayed onto the leaves in the usual manner. The plants were measured after 66 days.
Experiment [2] has as its system sunflowers. The experiment is described as follows: Action on sunflowers (Example 24). The following applies: for Plant height relative: control 100. From the text: The active ingredients were applied both to the soil and to the leaves.

With `Clc1ccc(N2N=NC3C4CC(C5N=NC45)C32)cc1` (stereo not drawn) [drawing 377], in the experiment on spring barley (0.5 kg/ha), the Ear weight is recorded as 91.5 g, the “No. of lateral shoots” value turned out to be 105, the Stem length was determined as 74.1 cm and the Ear weight relative turned out to be 101.2. In the experiment on spring barley (0.5 kg/ha), the “No. of lateral shoots relative” value is 112.9 and the Stem length relative is 96.4. Besides, in the experiment on spring barley (1.5 kg/ha), the Ear weight is given as 94.8 g, the “No. of lateral shoots” value is 111, the Stem length was found to be 69.7 cm and the Ear weight relative was 104.9. Also, in the experiment on spring barley (1.5 kg/ha), the “No. of lateral shoots relative” value came to 119.4 and the Stem length relative stood at 90.6.
In the experiment on sunflowers [1] (0.06 ppm), `Brc1ccc(N2N=NC3C4CC(C5N=NC45)C32)cc1` (stereo not drawn) [drawing 390] gave a Root dry substance of 1.5 g, a Root length of 18.7 cm, a Shoot dry substance of 6.3 g and a Shoot length of 35.0 cm. In the experiment on sunflowers [1] (0.06 ppm), the “Root dry substance rel.” value was determined as 100, the Root length rel. stood at 93.5, the “Shoot dry substance rel.” value is 98.4 and the Shoot length rel. is 84.7. For the same compound, in the experiment on sunflowers [1] (0.25 ppm), the Root dry substance is listed as 1.4 g, the Root length is on record as 16.7 cm, the Shoot dry substance came to 5.3 g and the Shoot length is given as 27.3 cm. In the experiment with sunflowers [1] (0.25 ppm), the “Root dry substance rel.” value was 93.3, the Root length rel. is recorded as 83.5, the “Shoot dry substance rel.” value is given as 82.8 and the Shoot length rel. stood at 66.1. Moreover, in the experiment on sunflowers [1] (0.63 ppm), the Root dry substance is given as 1.6 g, the Root length was 12.7 cm, the Shoot dry substance worked out at 5.2 g and the Shoot length was found to be 27.3 cm. In the experiment on sunflowers [1] (0.63 ppm), the “Root dry substance rel.” value is recorded as 106.7, the Root length rel. was determined as 63.5, the “Shoot dry substance rel.” value was 81.3 and the Shoot length rel. is given as 66.1.
For the compound `Clc1ccc(N2N=NC3C4CC(C5N=NC45)C32)cc1` (stereo not drawn) [drawing 391], in the experiment with cotton (0.3 ppm), the Shoot length is recorded as 40.2 cm, the “No. of squares per vessel (3 plants)” value came to 4.0 and the Shoot length rel. was 85.2. For the same compound, in the experiment with cotton (1.25 ppm), the Shoot length is reported as 27.8 cm, the “No. of squares per vessel (3 plants)” value is 8.7 and the Shoot length rel. amounted to 58.9.
As for `Brc1ccc(N2N=NC3C4CC(C5N=NC45)C32)cc1` (stereo not drawn) [drawing 392], in the experiment with cotton (0.3 ppm), the Shoot length amounted to 41.9 cm, the “No. of squares per vessel (3 plants)” value turned out to be 2.6 and the Shoot length rel. is listed as 88.8. Besides, in the experiment on cotton (1.25 ppm), the Shoot length was 30.9 cm, the “No. of squares per vessel (3 plants)” value was 8.3 and the Shoot length rel. stood at 65.5.
`Clc1ccc(N2N=NC3C4CC(C5N=NC45)C32)cc1` (stereo not drawn) [drawing 404]: the Plant height in the experiment on rice (1.0 kg/ha) is 35.0 cm; in the experiment with rice (2.0 kg/ha), 33.0 cm; with rice (4.0 kg/ha), 29.5 cm; in the experiment with rice (6.0 kg/ha), 28.5 cm. Besides, the Plant height relative with rice (1.0 kg/ha) is 86.2; in the experiment on rice (2.0 kg/ha), 81.3; in the experiment on rice (4.0 kg/ha) it was 72.7; in the experiment on rice (6.0 kg/ha), 70.2.
For the compound `Brc1ccc(N2N=NC3C4CC(C5N=NC45)C32)cc1` (stereo not drawn) [drawing 405], the Plant height turned out to be 37.0 cm with rice (1.0 kg/ha), 37.0 cm in the experiment on rice (2.0 kg/ha), 34.5 cm in the experiment with rice (4.0 kg/ha) and 33.5 cm in the experiment on rice (6.0 kg/ha). In addition, the Plant height relative stood at 91.1 in the experiment on rice (1.0 kg/ha), 91.1 in the experiment on rice (2.0 kg/ha), 85.0 in the experiment with rice (4.0 kg/ha) and 82.5 in the experiment on rice (6.0 kg/ha).
On to `Clc1ccc(N2N=NC3C4CC(C5N=NC45)C32)cc1` (stereo not drawn) [drawing 406], for which the Plant height worked out at 26.5 cm in the experiment with sunflowers [2] (soil, 3.0 kg/ha) and 15.5 cm in the experiment with sunflowers [2] (soil, 12.0 kg/ha). Also, the Plant height relative in the experiment with sunflowers [2] (soil, 3.0 kg/ha) is 73; in the experiment with sunflowers [2] (soil, 12.0 kg/ha) it was 43.
Regarding `Brc1ccc(N2N=NC3C4CC(C5N=NC45)C32)cc1` (stereo not drawn) [drawing 407], the Plant height relative in the experiment on sunflowers [2] (soil, 3.0 kg/ha) is recorded as 84; with sunflowers [2] (soil, 12.0 kg/ha), 62. Moreover, the Plant height with sunflowers [2] (soil, 12.0 kg/ha) was 22.5 cm.
For `Clc1ccc(N2N=NC3C4CC(C5N=NC45)C32)cc1` (stereo not drawn) [drawing 408], the Plant height relative with sunflowers [2] (leaf, 1.5 kg/ha) stood at 78; with sunflowers [2] (leaf, 6.0 kg/ha) it was 67. Further, the Plant height with sunflowers [2] (leaf, 6.0 kg/ha) stood at 25.5 cm.
For the compound `Brc1ccc(N2N=NC3C4CC(C5N=NC45)C32)cc1` (stereo not drawn) [drawing 409], the Plant height in the experiment with sunflowers [2] (leaf, 1.5 kg/ha) is 33.0 cm; in the experiment on sunflowers [2] (leaf, 6.0 kg/ha), 30.0 cm. Moreover, the Plant height relative in the experiment on sunflowers [2] (leaf, 1.5 kg/ha) is 86; with sunflowers [2] (leaf, 6.0 kg/ha), 78.
